Series [1] deals with T1, FAAH (Fatty Acid Amide Hydrolase) (Mus musculus, UniProt O08914).
T1 construct: The membrane homogenates are prepared at the time of use by homogenization of the tissues; from tissue; host or cells: mouse brain (minus the cerebellum), membrane homogenate
T1 sequence (O08914 1-579): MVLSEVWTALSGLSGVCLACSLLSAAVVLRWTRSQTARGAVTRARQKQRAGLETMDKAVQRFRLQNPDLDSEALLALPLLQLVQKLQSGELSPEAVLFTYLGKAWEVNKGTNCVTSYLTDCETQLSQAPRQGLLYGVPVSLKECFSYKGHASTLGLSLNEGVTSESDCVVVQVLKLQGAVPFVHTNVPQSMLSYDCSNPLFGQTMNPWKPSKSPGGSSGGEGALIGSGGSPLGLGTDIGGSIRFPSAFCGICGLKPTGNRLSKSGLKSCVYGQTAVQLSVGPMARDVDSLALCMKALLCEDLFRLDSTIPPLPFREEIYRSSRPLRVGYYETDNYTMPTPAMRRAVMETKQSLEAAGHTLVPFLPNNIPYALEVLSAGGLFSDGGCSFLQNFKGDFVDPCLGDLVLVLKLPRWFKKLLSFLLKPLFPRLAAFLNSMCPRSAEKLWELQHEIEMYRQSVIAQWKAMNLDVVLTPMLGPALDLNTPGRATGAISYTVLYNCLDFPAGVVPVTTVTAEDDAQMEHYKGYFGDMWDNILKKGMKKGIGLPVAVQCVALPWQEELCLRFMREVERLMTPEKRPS
Description: Radioenzymatic test of FAAH inhibition: hydrolysis of anandamide [ethanolamine 1-3H] by mouse brain membrane homogenates. The class given is biochemical. Particulars: mouse brain membrane homogenate; preincubation 20 min at 25° C.; anandamide 10 μM; read-out: CI50 (concentration which inhibits the control enzymatic activity of FAAH by 50%). The protocol:
The compounds of the invention form the subject of pharmacological trials which make it possible to determine their inhibitory effect on the enzyme FAAH (Fatty Acid Amide Hydrolase).
Thus, mouse brains (minus the cerebellum) are removed and stored at −80° C. The membrane homogenates are prepared at the time of use by homogenization of the tissues using a Precellys® device in the reaction buffer (Tris-HCl 10 mM pH=8, NaCl 150 mM and ethylenediaminetetraacetic acid (EDTA) 1 mM). The enzymatic reaction is carried out in 96-well MultiScreen filtration plates in a final volume of 70 μl. Reaction buffer supplemented with bovine serum albumin free from fatty acids (BSA, 1 mg/ml) is used for the enzymatic reaction, the dilution of the compounds and the dilution of the anandamide [ethanolamine 1-^3H]. Reaction buffer comprising the BSA (43 μl/well), the diluted test compounds at different concentrations (7 μl/well comprising 1% of DMSO) and the membrane preparation (10 μl/well, i.e. 200 μg of tissue per trial) are successively added to the wells. After preincubating the compounds with the enzyme at 25° C. for 20 minutes, the reaction is initiated by the addition of anandamide [ethanolamine 1-^3H] (specific activity of 15-20 Ci/mmol) diluted with cold anandamide (10 μl/well, final concentration of 10 μM, 0.01 μCi, per trial). After incubating at 25° C. for 20 minutes, the enzymatic reaction is halted by addition of a […] active charcoal solution prepared in a 1.5M NaCl and 0.5M HCl buffer (50 μl/well). The mixture is stirred for 10 minutes and then the aqueous phase comprising the [1-^3H]ethanolamine is recovered by filtration under vacuum and counted by liquid scintillation.

Counter-ions that a name gives are not always drawn.

`O=C(OCc1cscn1)N1CCC(CCOc2ccc3ncccc3c2)CC1` (as salt: HCl) [No. 19, Thiazol-4-ylmethyl 4-[2-(quinolin-6-yloxy)ethyl]-piperidine-1-carboxylate]: the melting point was in the range of 140 to 150 °C.
The same measure, in the same setting: as for `O=C(OCc1cscn1)N1CCC(CCOc2ccc3cnccc3c2)CC1` (as salt: HCl) [No. 20, Thiazol-4-ylmethyl 4-[2-(isoquinolin-6-yloxy)ethyl]-piperidine-1-carboxylate], the figure is 150 to 160 °C; as for `COc1ccc2cc(OCC3CCN(C(=O)OCc4cscn4)C3)ccc2c1` (racemic) [No. 11, Thiazol-4-ylmethyl (+/−)-3-(6-methoxynaphth-2-yloxymethyl)pyrrolidine-1-carboxylate], 128 to 130 °C.
On the same count and under the same terms, to `O=C(OCc1cscn1)N1CCC(COc2ccc(Cl)c(Cl)c2)C1` (racemic) [No. 13, Thiazol-4-ylmethyl (+/−)-3-(3,4-dichlorophenoxymethyl)pyrrolidine-1-carboxylate] belongs 78 to 80 °C; to `O=C(OCc1cscn1)N1CCC(COc2ccc(Cl)c3ccccc23)C1` (racemic) [No. 16, Thiazol-4-ylmethyl (+/−)-3-(4-chloronaphth-1-yloxymethyl)pyrrolidine-1-carboxylate], 84 to 86 °C.
The same measure, in the same setting: to `O=C(OCc1cscn1)N1CCC(COc2ccc3ccccc3c2)C1` (racemic) [No. 17, Thiazol-4-ylmethyl 3-(naphth-2-yloxymethyl)pyrrolidine-1-carboxylate] belongs 90 to 92 °C; to `O=C(OCc1cscn1)N1CCC(COc2ccc(-c3ccc(F)cc3)cc2)C1` (racemic) [No. 22, Thiazol-4-ylmethyl 3-(4′-fluorobiphenyl-4-yloxymethyl)-pyrrolidine-1-carboxylate], 115 to 117 °C.
`O=C(OCc1cscn1)N1CCC(COc2ccc3c(Cl)cccc3c2)C1` (racemic) [No. 23, Thiazol-4-ylmethyl (+/−)-3-(5-chloronaphth-2-yloxymethyl)pyrrolidine-1-carboxylate] showed a melting point of 89 to 91 °C.
Still for that read-out and setting: to `O=C(OCc1cscn1)N1CCC(COc2cccc(OC(F)(F)F)c2)C1` (racemic) [No. 24, Thiazol-4-ylmethyl (+/−)-3-(3-{trifluoromethoxy}-phenoxymethyl)pyrrolidine-1-carboxylate] belongs 54 to 56 °C; to `CC(C)(c1ccccc1)c1ccc(OCC2CCN(C(=O)OCc3cscn3)C2)cc1` (racemic) [No. 25, Thiazol-4-ylmethyl (+/−)-3-[4-(1-methyl-1-phenyl-ethyl)phenoxymethyl]pyrrolidine-1-carboxylate], 76 to 78 °C.
The same measure, in the same setting: as for `O=C(OCc1cscn1)N1CCC(COc2ccc3cnccc3c2)C1` (racemic) [No. 27, Thiazol-4-ylmethyl (+/−)-3-(isoquinolin-6-yloxymethyl)pyrrolidine-1-carboxylate], the figure is 122 to 124 °C; as for `O=C(OCc1cscn1)N1CCC(COc2ccc3cccnc3c2)C1` (racemic) [No. 28, Thiazol-4-ylmethyl (+/−)-3-(quinolin-7-yloxymethyl)-pyrrolidine-1-carboxylate], 94 to 96 °C; as for `O=C(OCc1cscn1)N1CCC(COc2ccc3ccncc3c2)C1` (racemic) [No. 29, Thiazol-4-ylmethyl (+/−)-3-(isoquinolin-7-yloxymethyl)pyrrolidine-1-carboxylate], 121 to 123 °C.
`O=C(OCc1cscn1)N1CCC(COc2ccc(Cl)c(C(F)(F)F)c2)C1` (racemic) [No. 30, Thiazol-4-ylmethyl (+/−)-3-(4-chloro-3-{trifluoromethyl}phenoxymethyl)pyrrolidine-1-carboxylate]: the melting point lay within 60 to 62 °C.
On the same count and under the same terms, as for `O=C(OCc1cscn1)N1CCC(COc2ccc3c(F)cccc3c2)C1` (racemic) [No. 31, Thiazol-4-ylmethyl (+/−)-3-(5-fluoronaphth-2-yloxymethyl)pyrrolidine-1-carboxylate], the figure is 76 to 78 °C; as for `O=C(OCc1nccs1)N1CCC(COc2ccc(-c3ccc(F)cc3)cc2)C1` (racemic) [No. 197, Thiazol-2-ylmethyl (+/−)-3-(4′-fluorobiphenyl-4-yloxymethyl)pyrrolidine-1-carboxylate], 81 to 83 °C; as for `COc1ccc2cc(OCC3CCN(C(=O)OCc4cc(C(N)=O)no4)C3)ccc2c1` (racemic) [No. 201, 3-Carbamoylisoxazol-5-ylmethyl (+/−)-3-(6-methoxynaphth-2-yloxymethyl)pyrrolidine-1-carboxylate], 193 to 195 °C.
On the same count and under the same terms, as for `O=C(OCc1nccs1)N1CC[C@@H](COc2ccc3ccccc3c2)C1` (single isomer, unassigned) [No. 194], the figure is 100 to 112 °C; as for `O=C(OCc1nccs1)N1CC[C@H](COc2ccc3ccccc3c2)C1` (single isomer, unassigned) [No. 195], 112 to 114 °C.
Still for that read-out and setting: to `O=C(OCc1cscn1)N1CCC(CCOc2ccc(Cl)cc2)CC1` [No. 5, Thiazol-4-ylmethyl 4-[2-(4-chlorophenoxy)ethyl]-piperidine-1-carboxylate] belongs 53 to 55 °C; to `O=C(OCc1cncs1)N1CCC(CCOc2ccc(F)cc2)CC1` [No. 6, Thiazol-5-ylmethyl 4-[2-(4-fluorophenoxy)ethyl]-piperidine-1-carboxylate], 96 to 98 °C.
As for `O=C(OCc1cncs1)N1CCC(CCOc2ccc(Cl)cc2)CC1` [No. 7, Thiazol-5-ylmethyl 4-[2-(4-chlorophenoxy)ethyl]-piperidine-1-carboxylate], the melting point lay within 93 to 97 °C.
Still for that read-out and setting: to `O=C(OCc1cncs1)N1CCC(CCOc2ccc(C(F)(F)F)cc2)CC1` [No. 8, Thiazol-5-ylmethyl 4-[2-(4-{trifluoromethyl}phenoxy)-ethyl]piperidine-1-carboxylate] belongs 47 to 49 °C.
`COc1ccc2ccc(OCCC3CCN(C(=O)OCc4cscn4)CC3)cc2c1` [No. 9, Thiazol-4-ylmethyl 4-[2-(7-methoxynaphth-2-yloxy)ethyl]-piperidine-1-carboxylate] displayed a melting point of 95 to 97 °C.
Still for that read-out and setting: to `N#Cc1ccc(OCCC2CCN(C(=O)OCc3cscn3)CC2)cc1` [No. 10, Thiazol-4-ylmethyl 4-[2-(4-cyanophenoxy)ethyl]-piperidine-1-carboxylate] belongs 108 to 110 °C; to `COc1ccc2cc(OCCC3CCN(C(=O)OCc4cscn4)CC3)ccc2c1` [No. 14, Thiazol-4-ylmethyl 4-[2-(6-methoxynaphth-2-yloxy)-ethyl]piperidine-1-carboxylate], 100 to 102 °C; to `O=C(OCc1cscn1)N1CCC(CCOc2ccc3ccccc3c2)CC1` [No. 15, Thiazol-4-ylmethyl 4-[2-(naphth-2-yloxy)ethyl]-piperidine-1-carboxylate], 88 to 90 °C.
Still for that read-out and setting: as for `O=C(OCc1cscn1)N1CCC(CCOc2ccc(-c3ccc(F)cc3)cc2)CC1` [No. 18, Thiazol-4-ylmethyl 4-[2-(4′-fluorobiphenyl-4-yloxy)-ethyl]piperidine-1-carboxylate], the figure is 62 to 64 °C.
Consider `O=C(OCc1nccs1)N1CCC(CCOc2ccc(C3CCCC3)cc2)CC1` [No. 38, Thiazol-2-ylmethyl 4-[2-(4-cyclopentylphenoxy)-ethyl]piperidine-1-carboxylate], for which, in series [1], the IC50 was found to be 14 nM.
The same measure, in the same setting: to `O=C(OCc1nccs1)N1CCC(CCOc2ccccc2-c2nc3ccccc3o2)CC1` [No. 39, Thiazol-2-ylmethyl 4-[2-(2-{benzoxazol-2-yl}-phenoxy)ethyl]piperidine-1-carboxylate] belongs 13 nM.
Molecule `NC(=O)c1cc(COC(=O)N2CCC(CCOc3ccc(F)cc3)CC2)on1` [No. 198, 3-Carbamoylisoxazol-5-ylmethyl 4-[2-(4-fluorophenoxy)ethyl]piperidine-1-carboxylate] had a melting point of 106 to 108 °C.
